From patent publication US20240398783A1, “Compounds and Pharmaceutical Compositions Comprising Inhibitors of Amyloid Peptide Interactions with Glycosaminoglycans, Methods of Treatment and Use Thereof” (Gismo Therapeutics, Inc., priority 2021, published 2024)
Structures can show the parent of a compound that is named as a salt.

These compounds were tested against Alpha-Synuclein Protofibril binding to purified human brain membranes (Homo sapiens, UniProt P37840) (assay: Inhibition of protofibrillar alpha-synuclein binding to purified human brain cell membranes (ELISA)). Conditions: Alpha-Synuclein/Membrane Activity (IC-50), alpha-synuclein protofibrils.
Procedure: Purified human brain cell membranes were prepared by differential centrifugation as follows. Five grams of frozen human brain postmortem tissue (obtained from University of Kentucky Alzheimer's Disease Center Tissue Bank) was homogenized in 50 ml HEPES-Buffered sucrose (0.32M sucrose, 4 mM HEPES pH7.4, protease inhibitors) with a motor driven glass-teflon homogenizer. After removing nuclear and cell debris by centrifugation of homogenates at 1,000×g for 10 min at 4 degree Celsius, post-nuclear supernatant was centrifuged at 100,000×g for 30 minutes to yield the crude membrane pellet. Crude membrane pellet was re-suspended in 0.32M sucrose, then centrifuged again at 100,000×g for 30 minutes to yield washed membrane pellet. Membrane pellet was resuspended in sterile PBS (pH7.4), quickly frozen, and kept in aliquots at −80 degrees Celsius. This preparation contains human brain cell membranes. Protein concentration was measured with BCA protein assay kit (Pierce Cat. No. 23227). Purified brain membranes were diluted to 0.01 mg/ml in PBS (pH 7.4) and then added to a 96 well polystyrene ELISA plate (NUNC Cat. No. 449824; 100 μl per well). Plates were incubated Over Night (ON) at 4 degrees Celsius. Following the incubation, the plate was washed consecutively, by immersion, with de-ionized water and PBS (pH 7.4). The ELISA plate was then blocked with nonfat milk (2%, 200 μl per well) for 2 hours at Room Temperature (RT). Following blocking, the plate was washed with de-ionized water then PBS (pH 7.4). GBAPs were dissolved and diluted in PBS (pH 6.5, supplemented with 0.1% BSA) at desired concentrations, added to the ELISA plates coated with brain membranes (100 μl per well) and incubated for 2 hours at RT with gentle shaking. Following incubation, the plate was washed with de-ionized water and three times with PBS (pH 6.5) plus Tween. Bound GBAP was detected by a monoclonal antibody specific for that GBAP, followed by incubation with secondary antibody conjugated to horseradish peroxidase (HRP). Antibody was diluted in PBS (pH6.5 supplemented with 1% BSA). Following each incubation with antibody, the plate was washed with de-ionized water and three times with PBS (pH6.5) wash buffer containing 0.1% Tween. The peroxidase substrate chromogen, TMB (Dako Cat. No. S1599) was added (100 μl per well) to the ELISA plate and incubated at room temperature. After 5 minutes ELISA Stop Solution (hydrochloric acid 1N, sulfuric acid 3N) was added (100 μl per well) to stop the peroxidase catalyzed colorimetric reaction. The Optical Density of the samples was measured at 450 nm using an ELISA plate reader (BioTek Synergy H1). Following color development, the % inhibition compared to control was determined. IC-50s were calculated using GraphPad Prism software.
The assay was performed as described in Example 49, with the following modifications. Following to coating the plates with human brain membranes, plates were washed as described. The compounds were dissolved in DMSO at 10 mM final concentration and further diluted prior to assay. DMSO concentration in the screening well was up to 2%. Individual compounds were co-incubated with alpha-synuclein on plates coated with brain membranes. Protofibrillar Alpha-synuclein were prepared as described in Example 45. Protofibrillar Alpha-synuclein diluted in PBS (pH 6.5, supplemented with BSA, 0.1%) was added to the ELISA plate (100 μl per well) and incubated for 2 hours at RT with gentle shaking. Following the incubation, the plate was washed with de-ionized water and three times with PBS (pH 6.5) plus Tween. Bound alpha-synuclein was detected by Anti-Alpha-synuclein Monoclonal Antibody 211 (Santa Cruz Cat. No. sc-12767), followed by secondary anti-IgG antibody conjugated to HRP (R&D System, Cat. No. HAF007). Following to color development with TMB, as described in Example 49, the Optical Density of the samples was measured at 450 nm using an ELISA plate reader. […]

| SMILES | IC50 [µM] |
| --- | --- |
| Clc1ccc2c(N/N=C/c3ccc(-n4cccn4)cc3)ccnc2c1 [Compound 3, (E)-4-((E)-(4-(1H-pyrazol-1-yl)benzylidene)hydrazono)-7-chloro-1,4-dihydroquinoline] | 7.34 |
| C[N+](C)(C)Cc1ccc(/C=N\Nc2ccnc3ccc(Cl)cc23)cc1 [Compound 4, (Z)-1-(4-((2-(6-chloroquinolin-4-yl)hydrazineylidene)methyl)phenyl)—N,N,N-trimethylmethanaminium iodide] | 10.7 |
| Fc1ccc2c(N/N=C/c3ccc(CN4CCOCC4)cc3)ccnc2c1 [Compound 6, (E)-4-(4-((2-(7-fluoroquinolin-4-yl)hydrazono)methyl)benzyl)morpholine] | 3.36 |
| CN1CCN(Cc2ccc(/C=N/Nc3ccnc4cc(Cl)ccc34)cc2)CC1 [Compound 7, (E)-7-chloro-4-(2-(4-((4-methylpiperazin-1-yl)methyl)benzylidene)hydrazinyl)quinolone] | 42.1 |
| COc1cc2nccc(N/N=C/c3ccc(-n4ccnc4)c(OC)c3)c2cc1OC [Compound 13, (E)-4-(2-(4-(1H-imidazol-1-yl)-3-methoxybenzylidene)hydrazineyl)-6,7-dimethoxyquinoline phosphate] | 4.03 |
| Clc1ccc2c(N/N=C/c3ccc(-n4ccnc4)nc3)ccnc2c1 [Compound 14, (E)-4-(2-((6-(1H-imidazol-1-yl)pyridin-3-yl)methylene)hydrazineyl)-7-chloroquinoline hydrochloride] | 6.51 |
| Cc1ncn(-c2ccc(/C=N\Nc3ncnc4cc(Cl)ccc34)cn2)c1C [Compound 15, 7-chloro-4-(2-((6-(4,5-dimethyl-1H-imidazol-1-yl)pyridin-3-yl)methylene)hydrazineyl)quinazoline hydrochloride] | 3.06 |
| C/C(=N\Nc1ncnc2cc(Cl)ccc12)c1ccc(-n2cnc(C)c2C)nc1 [Compound 16, 7-chloro-4-(2-(1-(6-(4,5-dimethyl-1H-imidazol-1-yl)pyridin-3-yl)ethylidene)hydrazineyl)quinazoline phosphate] | 3.25 |
| C/C(=N\Nc1ncnc2cc(Cl)ccc12)c1ccc(-n2cc[n+](C)c2)nc1 [Compound 17, (E)-1-(5-(1-(2-(7-chloroquinazolin-4-yl)hydrazineylidene)ethyl)pyridin-2-yl)-3-methyl-1H-imidazol-3-ium iodide phosphoric acid salt] | 13.1 |
| CC(=NNc1ccnc2cc(Cl)ccc12)c1ccc(-n2cnc(C)c2C)nc1 [Compound 22, 7-chloro-4-(2-(1-(6-(4,5-dimethyl-1H-imidazol-1-yl)pyridin-3-yl)ethylidene)hydrazineyl)quinoline] | 10.6 |
| C/C(=N\Nc1nncc2cc(Cl)ccc12)c1ccc(-n2cc(C)nc2C)nc1 [Compound 24, (E)-6-chloro-1-(2-(1-(6-(2,4-dimethyl-1H-imidazol-1-yl)pyridin-3-yl)ethylidene)hydrazineyl)phthalazine] | 4.03 |
| Cc1ncn(-c2ccc(Nc3ncnc4cc(Cl)ccc34)cn2)c1C [Compound 25, 7-chloro-N-(6-(4,5-dimethyl-1H-imidazol-1-yl)pyridin-3-yl)quinazolin-4-amine] | 3.4 |
| Clc1ccc2c(Nc3ccc(-n4cncn4)nc3)ncnc2c1 [Compound 34, N-(6-(1H-1,2,4-triazol-1-yl)pyridin-3-yl)-7-chloroquinazolin-4-amine phosphoric acid salt] | 4.38 |
| CC(=NNc1ccnc2cc(Cl)ccc12)c1ccc(-n2ccnc2)cc1 [Compound 36, 4-(2-(1-(4-(1H-imidazol-1-yl)phenyl)ethylidene)hydrazineyl)-7-chloroquinoline phosphate] | 9.46 |
| Clc1ccc2c(N/N=C/c3ccc(-n4ccnc4)cc3)ccnc2c1 [Compound 38, 4-(2-(4-(1H-imidazol-1-yl)benzylidene)hydrazineyl)-7-chloroquinoline dihydrochloride] | 2.79 |
| CCN1CCN(c2ccc(Nc3ccnc4cc5ccccc5cc34)cc2)CC1 [Compound 39, N-(4-(4-ethylpiperazin-1-yl)phenyl)benzo[g]quinolin-4-amine] | 45.8 |
| Cc1ncn(-c2ncc(Nc3ncnc4cc(Cl)ccc34)cc2O)c1C [Compound 40, 5-((7-chloroquinazolin-4-yl)amino)-2-(4,5-dimethyl-1H-imidazol-1-yl)pyridin-3-ol phosphoric acid salt] | 34.5 |
| Clc1ccc2c(Nc3ccc(-n4cncn4)nc3)ccnc2c1 [Compound 44, N-(6-(1H-1,2,4-triazol-1-yl)pyridin-3-yl)-7-chloroquinolin-4-amine] | 22.3 |

Same assay, conditions: alpha-synuclein protofibrils, read-out: Alpha-Synuclein/Membrane Activity (IC-50)

| IC50 [µM] | SMILES |
| --- | --- |
| 10.1 | Cc1cc(-n2ccnc2)ccc1/C=N/Nc1ccnc2cc(Cl)ccc12 [Compound 1, (E)-4-((E)-(4-(1H-imidazol-1-yl)-2-methylbenzylidene)hydrazono)-7-chloro-1,4-dihydroquinoline] |
| 1.8 | C/C(=N\Nc1ncnc2cc(F)ccc12)c1ccc(-n2cnc(C)c2C)nc1 [Compound 21, (E)-4-(2-(1-(6-(4,5-dimethyl-1H-imidazol-1-yl)pyridin-3-yl)ethylidene)hydrazineyl)-7-fluoroquinazoline] |
| 3.17 | CC(=NNc1ncnc2cc(Cl)ccc12)c1ccnc(-n2cnc(C)c2C)c1 [Compound 28, 7-chloro-4-(2-(1-(2-(4,5-dimethyl-1H-imidazol-1-yl)pyridin-4-yl)ethylidene)hydrazineyl)quinazoline] |
| 5.8 | Clc1ccc2c(Nc3ccc(-n4ccnc4)nc3)ncnc2c1 [Compound 41, N-(6-(1H-imidazol-1-yl)pyridin-3-yl)-7-chloroquinazolin-4-amine] |

| SMILES | IC50 [µM] |
| --- | --- |
| C/C(=N\Nc1ncnc2cc(Cl)ccc12)c1ccc(-n2cc(C)nc2C)nc1 [Compound 18, (E)-7-chloro-4-(2-(1-(6-(2,4-dimethyl-1H-imidazol-1-yl)pyridin-3-yl)ethylidene)hydrazineyl)quinazoline phosphoric acid salt] | 3.73 |
| C/C(=N\Nc1ncnc2cc(Cl)ccc12)c1ccc(-n2cc(C)nc2C)nc1 [Compound 27, (E)-7-chloro-4-(2-(1-(6-(2,4-dimethyl-1H-imidazol-1-yl)pyridin-3-yl)ethylidene)hydrazineyl)quinazoline hydrochloride] | 7.31 |
